The record followed here is PMC9061853, “Luminescent bis(benzo[d]thiazolyl)quinoxaline: facile synthesis, nucleic acid and protein BSA interaction, live-cell imaging, biopharmaceutical research and cancer theranostic application” (RSC Advances, 2019).

Series [1] concerns CT-DNA. Description: UV-visible absorption titration with CT-DNA. It counts as binding. As to the method:
DNA is one of the key target for cancer therapy. The drug molecules bind with the DNA by three major modes (i) electrostatic interactions with the DNA double helix (ii) binding to grooves of DNA (iii) intercalation between the base pairs of DNA.[25] The titration in UV was performed by increasing concentration of DNA from 10–60 μM into a fixed drug concentration (20 μM). The intra-ligand absorption bands around 290–350 nm (π–π* transition) were used in observation of the interaction of DNA and compound 7e (Fig. S3a ^†). […] Ethidium bromide, a nonspecific intercalator, gives a strong fluorescence while intercalating DNA base pairs. This enhanced fluorescence can be quenched by another chemical moiety which can competitively replace EtBr and binds to the same site.[27] […] The original fluorescence intensity of EtBr–DNA complex is rapidly quenched by increasing the concentration of compound 7e (Fig. S3c ^†). […]
Then the 96 well plate was placed on the shaker for 10 min and subsequently the absorbance was recorded by the ELISA reader at λ = 490 nm. […] The data were expressed as the growth inhibition percentage calculated according to the equation: % growth inhibition = 100 − [(AD × 100)/AB], where AD is the absorbance measured for sample and AB is the absorbance measured for blank wells (cells with a […]
with DNA. The absorbance of the complex was measured after each succeeding addition of […]

A short description of series [2]: Metabolic stability in mouse liver microsomes. In kind it is in vitro ADME. The following applies: for % Metabolism in 30 min: 0.5 μM, 0.5 mg ml^−1 protein, NADPH, 37 °C; for half-life at 0.5 μM: mouse, liver microsomes. The method, then: The in vitro metabolic rate of 7g was determined in liver microsomes and the intrinsic clearance (CLintr) was estimated. The study was conducted at 0.5 μM substrate concentration and microsomal protein concentration of 0.5 mg ml^−1. Metabolic stability study in the presence of microsomes and cofactor NADPH was performed at 37 °C, 60 rpm for 30 min time duration. NADPH free control incubation was performed simultaneously for 30 min to understand if there are any non-enzymatic metabolism related issues. […] Intrinsic clearance as given in Table 6, was calculated using eqn (8). ^†

What is called half-life is the time in which the quantity being followed falls by half. Higher therefore signals slow loss.

As for `Clc1cc2nc(COc3ccccc3-c3nc4ccccc4s3)c(COc3ccccc3-c3nc4ccccc4s3)nc2cc1Cl` [Compound 7e], the “K b, intrinsic DNA binding constant” value in series [1] (UV-visible absorption titration, 7e 20 μM, DNA 10–60 μM) was determined as 6900 M⁻¹. In addition, the “% Hypochromism” value in series [1] (UV-visible titration with CT-DNA) was 50%.
Consider `COc1ccc2nc(COc3ccccc3-c3nc4ccccc4s3)c(COc3ccccc3-c3nc4ccccc4s3)nc2c1` [Compound 7g, 2,2'-((((6-methoxyquinoxaline-2,3-diyl)bis(methylene))bis(oxy))bis(2,1-phenylene))bis(benzo[d]thiazole)], for which, in series [2] (MLM set 1), the CLint stood at 13 μl per min per mg protein, the “% Metabolism in 30 min” value is 12% and the half-life at 0.5 μM stood at 1.83 h. Moreover, in series [2] (MLM set 2), the CLint is listed as 28 μl per min per mg protein, the “% Metabolism in 30 min” value is listed as 37% and the half-life at 0.5 μM amounted to 0.818 h.
